Experimental data published in US20220110910A1, “CANNABINOID-CONTAINING COMPLEX MIXTURES FOR THE TREATMENT OF CYTOKINE RELEASE SYNDROME WHILE PRESERVING KEY ANTI-VIRAL IMMUNE REACTIONS” (GBS Global BioPharma, Inc., priority 2020, published 2022).
Entries after “also recorded” stand apart in the source; their conditions may differ.

Columns and labels:
Format in all cases: cell-based, human
monocytes [1] = test: IL-1β ELISA in supernatants of LPS-stimulated PBMC
Protocol: (§1) In immunological activity experiments, PBMC suspensions were pre-treated with cannabinoid and/or terpene compounds for 30 minutes before treatment with designated stimuli, cultured in 96 well tissue culture plates, and incubated at 37° C. and 5.0% CO2. In pDC experiments, cell suspensions were stimulated with CpG-ODN Type A 2216 (15 μg/mL) (InvivoGen©, San Diego, Calif.) following treatment with cannabinoids. Golgi transport inhibitors Monensin (2 μM)/Brefeldin A (3.0 μg/mL) (Thermo Fisher Scientific, Waltham, Mass.) were added to culture 3 hours post-stimulation, and after 7 hours of stimulation cells were harvested for evaluation by flow cytometry for IFNα and TNFα. In monocyte experiments, cell suspensions were stimulated with 1000 ng/mL LPS (S. typhosa, Sigma Aldrich, St. Louis, Mo.) for 18 hours before harvesting supernatants for IL-1β, Golgi blocked for 6 hours before harvesting cells for assessment of IL-6, or cultured for 48 hours before harvesting cells for assessment of HLA-DR, CD80, and CD86. In phagocytosis experiments, cell suspensions were treated with 3.0 mg/mL of pHrodo Green BioParticles (Thermo Fisher). In T cell experiments, cells were plated on 96 well tissue culture plates pre-coated with 5.0 μg/mL anti-CD3 (clone UCHT1, Biolegend, San Diego, Calif.) and stimulated with 5.0 μg/mL anti-CD28 (clone 28.2, Biolegend) and supplemented with 5.0 ng/mL IL-2 (Roche Applied Science, Indianapolis, Ind.). CD25 and CD69 were assessed by flow cytometry 24 hours post-stimulation. In proliferation experiments, cell suspensions were incubated with CFSE Cell Division Tracker (Biolegend) according to manufacturer protocols, harvested 4 days post-stimulation and assessed by flow cytometry. Cell suspensions were further stimulated with 50 ng/mL phorbol 12-myristate 13-acetate (PMA) and 1000 ng/mL ionomycin (Io) at 4 days post-stimulation for 18 hours, Golgi blocked for 6 hours, and harvested for IL-4 and IFNγ assessment by flow cytometry.
To quantify IL-1β produced by monocytes, supernatants were collected from LPS stimulated cell suspensions after 18 hours and frozen at −80° C. ELISA MAX from Biolegend was used as per manufacturer protocol to quantify IL-1β to a sensitivity of […].

CD4+ T cells [2] = test: T cell activation markers CD25 and CD69, 24 hours post-stimulation; conditions: concentration not given
Protocol: as §1, with “In T cell experiments, cells were plated on 96 well tissue culture plates pre-coated with 5.0 μg/mL anti-CD3 (clone UCHT1, Biolegend, San Diego, Calif.) and stimulated with 5.0 μg/mL anti-CD28 (clone 28.2, Biolegend) and supplemented with 5.0 ng/mL IL-2 (Roche Applied Science, Indianapolis, Ind.).” left out, “Cell suspensions were further stimulated with 50 ng/mL phorbol 12-myristate 13-acetate (PMA) and 1000 ng/mL ionomycin (Io) at 4 days post-stimulation for 18 hours, Golgi blocked for 6 hours, and harvested for IL-4 and IFNγ assessment by flow cytometry.” left out
(§2) In brief, pDC, monocyte and T cell were identified using antibodies directed against unique epitopes for each cell type and analyzed by flow cytometry. […] For intracellular staining, fixed cells were permeabilized in BD Permwash and incubated with appropriate antibodies and 7% human AB serum. pDC were identified as CD303+and assessed for intracellular IFNα and TNFα. Monocytes were identified as CD14+ and assessed for extracellular HLA-DR, CD80, CD86, and intracellular TNFα and IL-6. […] T cells were identified as CD3+ and T cell subsets identified by CD4+ and CD8+ and assessed for extracellular CD25 and CD69 and intracellular IFNγ and IL-4. […]

CD8+ T cells [3] = test: Intracellular IFNγ after anti-CD3/anti-CD28 stimulation and PMA/ionomycin; conditions: vs vehicle
Protocol: as §1
as §2, with “cytometry. Cells were fixed in BD CytoFix and resuspended in FACS buffer for extracellular staining.” for “cytometry.”

CD4+ T cells [4] = test: Intracellular IFNγ and IL-4 after anti-CD3/anti-CD28 stimulation and PMA/ionomycin; conditions: vs vehicle
Protocol: as §1
as §2, with “cytometry. Cells were fixed in BD CytoFix and resuspended in FACS buffer for extracellular staining.” for “cytometry.”

monocytes [5] = test: Co-stimulatory markers HLA-DR, CD80, CD86 on monocytes after LPS; conditions: 2 days, vs vehicle
Protocol: as §1
In brief, pDC, monocyte and T cell were identified using antibodies directed against unique epitopes for each cell type and analyzed by flow cytometry. Cells were fixed in BD CytoFix and resuspended in FACS buffer for extracellular staining. To determine the changes in cell viability in mixed PBMC, gates were first set on singlet events, then CD45+ cells, then populations identified by CD3+ (T cells) and CD14+ (monocytes), and then 7-AAD- for viability. Likewise, for pDC viability experiments, pDC were identified as CD303+ and viable by exclusion of Near IR L/D stain (Life Technologies, Carlsbad, Calif.). For intracellular staining, fixed cells were permeabilized in BD Permwash and incubated with appropriate antibodies and 7% human AB serum. pDC were identified as CD303+and assessed for intracellular IFNα and TNFα. Monocytes were identified as CD14+ and assessed for extracellular HLA-DR, CD80, CD86, and intracellular TNFα and IL-6. In phagocytosis experiments, PBMC were identified as CD45+ and monocytes were identified based on side scatter and then phagocytosing monocytes. T cells were identified as CD3+ and T cell subsets identified by CD4+ and CD8+ and assessed for extracellular CD25 and CD69 and intracellular IFNγ and IL-4. To analyze T cell proliferation, FlowJo 10.0 proliferation tool was used by setting the undivided peak of CFSE stained cells in each sample.

monocytes [6] = test: IL-6+ monocytes after LPS stimulation (intracellular staining); conditions: LPS 1000 ng/mL, vs vehicle
Protocol: as §1, with “In T cell experiments, cells were plated on 96 well tissue culture plates pre-coated with 5.0 μg/mL anti-CD3 (clone UCHT1, Biolegend, San Diego, Calif.) and stimulated with 5.0 μg/mL anti-CD28 (clone 28.2, Biolegend) and supplemented with 5.0 ng/mL IL-2 (Roche Applied Science, Indianapolis, Ind.).” left out, “Cell suspensions were further stimulated with 50 ng/mL phorbol 12-myristate 13-acetate (PMA) and 1000 ng/mL ionomycin (Io) at 4 days post-stimulation for 18 hours, Golgi blocked for 6 hours, and harvested for IL-4 and IFNγ assessment by flow cytometry.” left out
as §2

monocytes [7] = test: Phagocytosis of pHrodo Green BioParticles by monocytes; conditions: 10 μM; pHrodo Green BioParticles 3.0 mg/mL; vs vehicle
Protocol: as §1, with “In T cell experiments, cells were plated on 96 well tissue culture plates pre-coated with 5.0 μg/mL anti-CD3 (clone UCHT1, Biolegend, San Diego, Calif.) and stimulated with 5.0 μg/mL anti-CD28 (clone 28.2, Biolegend) and supplemented with 5.0 ng/mL IL-2 (Roche Applied Science, Indianapolis, Ind.).” left out, “Cell suspensions were further stimulated with 50 ng/mL phorbol 12-myristate 13-acetate (PMA) and 1000 ng/mL ionomycin (Io) at 4 days post-stimulation for 18 hours, Golgi blocked for 6 hours, and harvested for IL-4 and IFNγ assessment by flow cytometry.” left out
as §2

CD8+ T cells [8] = test: T cell activation markers CD25 and CD69, 24 hours post-stimulation; conditions: 10 μM
Protocol: as §1, with “In T cell experiments, cells were plated on 96 well tissue culture plates pre-coated with 5.0 μg/mL anti-CD3 (clone UCHT1, Biolegend, San Diego, Calif.) and stimulated with 5.0 μg/mL anti-CD28 (clone 28.2, Biolegend) and supplemented with 5.0 ng/mL IL-2 (Roche Applied Science, Indianapolis, Ind.).” left out, “Cell suspensions were further stimulated with 50 ng/mL phorbol 12-myristate 13-acetate (PMA) and 1000 ng/mL ionomycin (Io) at 4 days post-stimulation for 18 hours, Golgi blocked for 6 hours, and harvested for IL-4 and IFNγ assessment by flow cytometry.” left out
as §2

PBMC = test: Immune modulation survey of single compounds (all functional responses); conditions: 0.001-10 μM
Protocol: In immunological activity experiments, PBMC suspensions were pre-treated with cannabinoid and/or terpene compounds for 30 minutes before treatment with designated stimuli, cultured in 96 well tissue culture plates, and incubated at 37° C. and 5.0% CO2. In pDC experiments, cell suspensions were stimulated with CpG-ODN Type A 2216 (15 μg/mL) (InvivoGen©, San Diego, Calif.) following treatment with cannabinoids. Golgi transport inhibitors Monensin (2 μM)/Brefeldin A (3.0 μg/mL) (Thermo Fisher Scientific, Waltham, Mass.) were added to culture 3 hours post-stimulation, and after 7 hours of stimulation cells were harvested for evaluation by flow cytometry for IFNα and TNFα. […] CD25 and CD69 were assessed by flow cytometry 24 hours post-stimulation. In proliferation experiments, cell suspensions were incubated with CFSE Cell Division Tracker (Biolegend) according to manufacturer protocols, harvested 4 days post-stimulation and assessed by flow cytometry. […]
In brief, pDC, monocyte and T cell were identified using antibodies directed against unique epitopes for each cell type and analyzed by flow cytometry. […] For intracellular staining, fixed cells were permeabilized in BD Permwash and incubated with appropriate antibodies and 7% human AB serum. pDC were identified as CD303+and assessed for intracellular IFNα and TNFα. […]

CD4+ T cells [9] = test: T cell proliferation (CFSE, FlowJo Proliferation tool); conditions: 10 μM
Protocol: as §1
as §2, with “cytometry. Cells were fixed in BD CytoFix and resuspended in FACS buffer for extracellular staining.” for “cytometry.”

CD8+ T cells [10] = test: as above; conditions: increasing concentration up to 10 μM
Protocol: as §1
as §2, with “cytometry. Cells were fixed in BD CytoFix and resuspended in FACS buffer for extracellular staining.” for “cytometry.”

monocytes [11] = test: TNFα+ monocytes after CpG-ODN stimulation (intracellular staining); conditions: 0.1 μM; CpG-ODN 15 μg/mL, 6 hours; vs vehicle
Protocol: FIGS. 9A-9B reveal the TNFα decreasing potential of cannabinol (CBN). […] PBMC were isolated from human peripheral blood and pre-treated with the indicated concentrations of cannabinol for 30 minutes, followed by stimulation with 15 μg/mL CpG-ODN for 6 hours (FIG. 9A). Cells were non-enzymatically released from culture plates and assessed for the percentage of TNFα+ monocytes (FIG. 9A) by intracellular staining. For FIG. 9B, PBMC were isolated from human peripheral blood and pre-treated with the indicated concentrations of cannabinol for 30 minutes, followed by treatment with 3.0 mg/mL of pHrodo Green BioParticles (FIG. 9B). In FIG. 9B, cells were treated with 3.0 mg/mL of pHrodo Green BioParticles and assessed for phagocytosis monocytes by flow cytometry within 2 hours. Data are normalized to each donor's vehicle control when appropriate and presented as mean±SEM. N=4-6 donors per treatment group. […] *p<0.05 when compared to VH (FIG. 9A), or **p<0.01 when compared to VH (FIG. 9B), by repeated measure one-way ANOVA with Dunnett's posttest.
as §2, with “cytometry. Cells were fixed in BD CytoFix and resuspended in FACS buffer for extracellular staining.” for “cytometry.”

[12] = 0.01 μM, LPS 1000 ng/mL, vs vehicle
[13] = 10 μM, LPS 1000 ng/mL, vs vehicle

Structure (SMILES): C=CC(C)(O)CC/C=C(\C)CCC=C(C)C (stereo not drawn) [trans-nerolidol, trans nerolidol]
- IL-1β in monocytes (monocytes [1]; [12]): enhanced
- IL-1β in monocytes (monocytes [1]; 0.01 μM, LPS 1000 ng/mL, vs vehicle, listed as tN): significantly increased
- % CD25+ in CD4+ T cells (activation marker) (CD4+ T cells [2]): increased

Structure (SMILES): CCCCCc1cc(O)c(C/C=C(\C)CCC=C(C)C)c(O)c1 [CBG, cannabigerol]
- IFNγ in CD8+ T cells (CD8+ T cells [3]; 0.01-1 μM): significantly decreased
- IL-1β in monocytes (monocytes [1]; [13]): significantly decreased
- IFNγ in CD4+ T cells (CD4+ T cells [4]; 0.01-1 μM): significantly decreased
- IL-4 levels in CD4+ T cells (CD4+ T cells [4]; 0.1-1 μM): significantly decreased
- HLA-DR co-stimulatory marker in monocytes (monocytes [5]; 10 μM): increased; also recorded: enhanced
- CD86+ co-stimulatory marker in monocytes (monocytes [5]; 1-10 μM): increased; also recorded: enhanced

Structure (SMILES): C=C(C)[C@@H]1CCC(C)=C[C@H]1c1c(O)cc(CCC)cc1O [CBDV, cannabidivarin]
- IFNγ in T cells (FIG. 8A: CD8+ T cells) (CD8+ T cells [3]; 0.01 μM): significantly decreased
- IL-6 in monocytes (monocytes [6]; 1-10 μM): significantly decreased
- phagocytosis by monocytes (monocytes [7]): significantly decreased
- IL-1β in monocytes (monocytes [1]; [12]): increased; also recorded: significantly increases
- IL-1β in monocytes (monocytes [1]; [13]): significantly decreased
- CD80+ co-stimulatory marker in monocytes (monocytes [5]; 10 μM): significantly decreased
- CD86+ co-stimulatory marker in monocytes (monocytes [5]; 10 μM): increased
- HLA-DR co-stimulatory marker in monocytes (monocytes [5]; 10 μM): significantly decreased
- CD25+ activation marker in CD8+ T cells (CD8+ T cells [8]): decreased
- CD69+ activation marker in CD8+ T cells (CD8+ T cells [8]): decreased

Structure (SMILES): C=CC(C)(O)CCC=C(C)C (stereo not shown) [Linalool]
- any other immunological functional responses measured in the immune modulation survey (PBMC): did not have any statistically significant effects
- IL-1β secretion in monocytes (monocytes [1]; 0.001 μM, LPS 1000 ng/mL, vs vehicle): significantly increased
- IL-1β production (monocytes [1]; any other concentration (tested 0.001-10 μM, other than 0.001 μM)): did not exhibit any effects

Structure (SMILES): CCCCCc1cc(O)c2c(c1)OC(C)(CCC=C(C)C)C=C2 (stereo not shown) [CBC, cannabichromene]
- IL-6 in monocytes (monocytes [6]; 10 μM): significantly decreased
- T cell proliferation in CD4+ T cells (CD4+ T cells [9]): significantly decreased
- T cell proliferation in CD8+ T cells (CD8+ T cells [10]): not statistically significant
- TNFα in monocytes (monocytes [11]): significantly increased
- HLA-DR co-stimulatory marker in monocytes (monocytes [5]; 10 μM): increased
- CD86+ co-stimulatory marker in monocytes (monocytes [5]; 1-10 μM): increased
